Like-named read-outs stand apart in the source and are kept apart here.
Columns and labels:
[1] = test system: recombinant rabies virus 1088 strain expressing Gaussia Luciferase (GLuc) (1088/GLuc); assay type: cell-based
[2] = test system: mouse neuroblastoma cell strain Neuro-2A; assay: Anti-cancer cell activity evaluation (minimum inhibitory concentration with respect to cells); assay type: cell-based; conditions: MIC, 3 days
rabies virus = conditions: mouse, in vivo; cited from earlier work
[3] = compounds of formula XXIIB and formula XXIIF (continuation)
[4] = compounds of formula XXIIB and formula XXIIF

| SMILES | IC50 ([1]; read-out: Anti-rabies activity) [µM] | Anti-cancer cell activity [2, 4] | also measured |
| --- | --- | --- | --- |
| CC(C)CN1C[C@@H]2C[C@H]3CN[C@]2(C(=O)NCc2cccc(F)c2)[C@@H]1[C@@H]3CCCCc1ccccc1 (relative stereo) [IB-936] | < 5 |  | Anti-cancer cell activity ([2]; compounds of formula XXIB): b (b if greater than 10 µM and less than or equal to 20 µM) |
| Cc1cccc(CNC(=O)[C@]23NC[C@@H]4C[C@H]2CN(CC(C)C)[C@H]3[C@@H]4CCCCc2ccccc2)c1 (relative stereo) [IB-937] | < 5 |  | Anti-cancer cell activity ([2]; compounds of formula XXIB): c (c if greater than 20 µM and less than or equal to 40 µM) |
| CC(C)CN1C[C@@H]2C[C@H]3CN[C@]2(C(=O)NCc2ccccc2)[C@@H]1[C@@H]3CCCCc1ccccc1 (relative stereo) [IB-939] | < 5 |  | Anti-cancer cell activity ([2]; compounds of formula XXIB): c (c if greater than 20 µM and less than or equal to 40 µM) |
| CC(C)CCN1C[C@@H]2C[C@H]3CN[C@]2(C(=O)NCc2cccc(F)c2)[C@@H]1[C@@H]3CCCc1ccccc1 (relative stereo) [IB-940] | < 5 |  | Anti-cancer cell activity ([2]; compounds of formula XXIB): c (c if greater than 20 µM and less than or equal to 40 µM) |
| CC(C)CCN1C[C@H]2C[C@]3(C(=O)NCc4ccc(Cl)cc4)N=C[C@H]2[C@H]1[C@H]3Cc1ccccc1 (relative stereo) [IIF-326] | < 5 |  | Anti-cancer cell activity [2, 3]: b (b if greater than 10 µM and less than or equal to 20 µM) |
| CC(C)CN1C[C@H]2C[C@]3(C(=O)NCc4ccc(Cl)cc4)N=C[C@H]2[C@H]1[C@H]3CCc1ccccc1 (relative stereo) [IIF-330] | < 5 |  | Anti-cancer cell activity [2, 3]: c (c if greater than 20 µM and less than or equal to 40 µM) |
| CC(C)CN1C[C@H]2C[C@]3(C(=O)NCc4cccc(Cl)c4)N=C[C@H]2[C@H]1[C@H]3CCc1ccccc1 (relative stereo) [IIF-331] | < 5 |  | Anti-cancer cell activity [2, 3]: c (c if greater than 20 µM and less than or equal to 40 µM) |
| NC(=O)c1nc(F)c[nH]c1=O [Compound T-705, Favipiravir] |  |  | IC50 ([1]; read-out: IC50): 30 µM; prophylactic effect (rabies virus): significant prophylactic effect was confirmed and not |
| CC(C)CN1CC2CC3CNC2(C(=O)NCCc2ccccc2)C1C3CCc1ccccc1 (centres unmarked) [IB-957] | < 5 |  | Anti-cancer cell activity ([2]; compounds of formula XXIB): c (c if greater than 20 µM and less than or equal to 40 µM) |
| CC(C)CN1CC2CC3CNC2(C(=O)NCc2cccc4ccccc24)C1C3CCc1ccccc1 (centres unmarked) [IB-958] | < 5 |  | Anti-cancer cell activity ([2]; compounds of formula XXIB): b (b if greater than 10 µM and less than or equal to 20 µM) |
| COc1cccc(CNC(=O)C23CC4CN(CC(C)C)C(C4CN2)C3CCCc2ccccc2)c1 (centres unmarked) [IF-894] | < 5 |  | Anti-cancer cell activity ([2]; compounds of formula XXIF): c (c if greater than 20 µM and less than or equal to 40 µM) |
| CC(C)CN1CC2CC3(C(=O)NCc4cccc(Cl)c4)NCC2C1C3CCCCc1ccccc1 (centres unmarked) [IF-895] | < 5 |  | Anti-cancer cell activity ([2]; compounds of formula XXIF): b (b if greater than 10 µM and less than or equal to 20 µM) |
| CC(C)CN1CC2CC3(C(=O)NCc4cccc(F)c4)NCC2C1C3CCCCc1ccccc1 (centres unmarked) [IF-896] | < 5 |  | Anti-cancer cell activity ([2]; compounds of formula XXIF): b (b if greater than 10 µM and less than or equal to 20 µM) |
| Cc1cccc(CNC(=O)C23CC4CN(CC(C)C)C(C4CN2)C3CCCCc2ccccc2)c1 (centres unmarked) [IF-897] | < 5 |  | Anti-cancer cell activity ([2]; compounds of formula XXIF): b (b if greater than 10 µM and less than or equal to 20 µM) |
| CC(C)CN1CC2CC3(C(=O)NCc4ccccc4)NCC2C1C3CCCCc1ccccc1 (centres unmarked) [IF-899] | 5 to 10 |  | Anti-cancer cell activity ([2]; compounds of formula XXIF): c (c if greater than 20 µM and less than or equal to 40 µM) |
| CC(C)CCN1CC2CC3(C(=O)NCc4cccc(F)c4)NCC2C1C3CCCc1ccccc1 (centres unmarked) [IF-900] | < 5 |  | Anti-cancer cell activity ([2]; compounds of formula XXIF): c (c if greater than 20 µM and less than or equal to 40 µM) |

| SMILES | IC50 ([1]; read-out: Anti-rabies activity) [µM] | Anti-cancer cell activity [2, 4] | also measured |
| --- | --- | --- | --- |
| CC(C)CN1CC2CC3C=NC2(C(=O)NCc2ccc(Cl)cc2)C1C3CCc1ccccc1 (centres unmarked) [IIB-331] | < 5 | c (c if greater than 20 µM and less than or equal to 40 µM) |  |
| CC(C)CN1CC2CC3C=NC2(C(=O)NCc2cccc(Cl)c2)C1C3CCc1ccccc1 (centres unmarked) [IIB-332] | < 5 | b (b if greater than 10 µM and less than or equal to 20 µM) |  |
| Cc1ccc(CNC(=O)C23N=CC4CC2CN(CC(C)C)C3C4CCc2ccccc2)cc1 (centres unmarked) [IIB-334] | < 5 | c (c if greater than 20 µM and less than or equal to 40 µM) |  |
| CC(C)CN1CC2CC3C=NC2(C(=O)NCc2ccc4ccccc4c2)C1C3CCc1ccccc1 (centres unmarked) [IIB-335] | < 5 | c (c if greater than 20 µM and less than or equal to 40 µM) |  |
| CC(C)CN1CC2CC3C=NC2(C(=O)NCc2ccccc2)C1C3CCCc1ccccc1 (centres unmarked) [IIB-336] | < 5 | c (c if greater than 20 µM and less than or equal to 40 µM) |  |
| CC(C)CN1CC2CC3C=NC2(C(=O)NCc2cccc(Cl)c2)C1C3CCCc1ccccc1 (centres unmarked) [IIB-337] | < 5 | c (c if greater than 20 µM and less than or equal to 40 µM) |  |
| CC(C)CN1CC2CC3C=NC2(C(=O)NCc2cccc(F)c2)C1C3CCCc1ccccc1 (centres unmarked) [IIB-338] | < 5 | c (c if greater than 20 µM and less than or equal to 40 µM) |  |
| Cc1cccc(CNC(=O)C23N=CC4CC2CN(CC(C)C)C3C4CCCc2ccccc2)c1 (centres unmarked) [IIB-340] | < 5 | c (c if greater than 20 µM and less than or equal to 40 µM) |  |
| COc1cccc(CNC(=O)C23N=CC4CC2CN(CC(C)C)C3C4CCCc2ccccc2)c1 (centres unmarked) [IIB-341] | < 5 | c (c if greater than 20 µM and less than or equal to 40 µM) |  |
| CC(C)CN1CC2CC3C=NC2(C(=O)NCc2cccc(Cl)c2)C1C3CCCCc1ccccc1 (centres unmarked) [IIB-342] | 5 to 10 | b (b if greater than 10 µM and less than or equal to 20 µM) |  |
| CC(C)CN1CC2CC3C=NC2(C(=O)NCc2cccc(F)c2)C1C3CCCCc1ccccc1 (centres unmarked) [IIB-343] | < 5 | c (c if greater than 20 µM and less than or equal to 40 µM) |  |
| Cc1cccc(CNC(=O)C23N=CC4CC2CN(CC(C)C)C3C4CCCCc2ccccc2)c1 (centres unmarked) [IIB-344] | < 5 | b (b if greater than 10 µM and less than or equal to 20 µM) |  |
| COc1cccc(CNC(=O)C23N=CC4CC2CN(CC(C)C)C3C4CCCCc2ccccc2)c1 (centres unmarked) [IIB-345] | < 5 | c (c if greater than 20 µM and less than or equal to 40 µM) |  |
| CC(C)CN1CC2CC3C=NC2(C(=O)NCc2ccccc2)C1C3CCCCc1ccccc1 (centres unmarked) [IIB-346] | < 5 | b (b if greater than 10 µM and less than or equal to 20 µM) |  |
| CC(C)CCN1CC2CC3C=NC2(C(=O)NCc2cccc(F)c2)C1C3CCCc1ccccc1 (centres unmarked) [IIB-347] | < 5 | c (c if greater than 20 µM and less than or equal to 40 µM) |  |

— patent EP4104902B1, “COMPOUNDS AND M[…] SAME” (priority 2020, dated 2021)
